We go through 22 compounds from patent publication US9226916B2, “Pyrrolidine derivatives” (HOFFMANN-LA ROCHE INC., priority 2009, dated 2016).

The target in one experiment is T1, recombinant human NK3 receptor (Homo sapiens, UniProt P29371).
T1 construct: expressed in transfected cells; host or cells: HEK293 cells, transient expression; membranes
T1 sequence (P29371 1-465): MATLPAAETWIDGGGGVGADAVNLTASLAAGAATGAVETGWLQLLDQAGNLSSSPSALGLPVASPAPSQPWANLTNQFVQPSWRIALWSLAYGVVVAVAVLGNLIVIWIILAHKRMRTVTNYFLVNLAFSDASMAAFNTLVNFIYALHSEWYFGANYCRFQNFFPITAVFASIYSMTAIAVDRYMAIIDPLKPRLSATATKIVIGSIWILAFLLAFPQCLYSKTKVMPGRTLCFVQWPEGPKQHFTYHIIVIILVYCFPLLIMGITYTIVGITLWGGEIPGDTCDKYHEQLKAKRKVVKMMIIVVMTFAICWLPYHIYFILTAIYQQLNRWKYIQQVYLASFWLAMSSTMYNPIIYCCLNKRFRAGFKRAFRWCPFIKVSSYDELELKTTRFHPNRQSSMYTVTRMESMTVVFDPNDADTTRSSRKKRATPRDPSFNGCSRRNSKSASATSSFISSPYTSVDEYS
In words: [3H]SR142801 competition binding assay.
Settings: not given
For the compound `CN(C(=O)Oc1ccc(F)cc1)[C@@H]1CN(C(=O)C2CCN(C(=O)C3CC(F)C3)CC2)C[C@H]1c1ccc(Cl)cc1` (stereo partly drawn) [Example 249, {(3S,4R)-4-(4-Chloro-phenyl)-1-[1-(3-fluoro-cyclobutanecarbonyl)-piperidine-4-carbonyl]-pyrrolidin-3-yl}-methyl-carbamic acid 4-fluoro-phenyl ester], the Ki – broadly, the dissociation constant of the complex between target and ligand, obtained from inhibition or displacement – came to 1.9 nM.
Same read-out and setting: the figure for `CC(=O)N1CCC(C(=O)N2C[C@H](c3ccc(Cl)c(Cl)c3)[C@@H](N(C)C(=O)Oc3ccc(F)cc3)C2)CC1` (racemic) [Example 65, rac-[(3R,4S)-1-(1-Acetyl-piperidine-4-carbonyl)-4-(3,4-dichloro-phenyl)-pyrrolidin-3-yl]-methyl-carbamic acid 4-fluoro-phenyl ester] is 0.7 nM; for `CN(C(=O)Oc1ccc(F)cc1)[C@@H]1CN(C(=O)C2CCC(CO)CC2)C[C@H]1c1ccc(Cl)cc1` (stereo partly drawn) [Example 116, [(3S,4R)-4-(4-Chloro-phenyl)-1-(4-hydroxymethyl-cyclohexanecarbonyl)-pyrrolidin-3-yl]-methyl-carbamic acid 4-fluoro-phenyl ester] it is 10 nM.
As to `Cc1ccc(OC(=O)N(C)[C@@H]2CN(C(=O)C3CCN(c4ccc(C#N)cn4)CC3)C[C@H]2c2ccc(Cl)cc2)cc1` [Example 202, [(3S,4R)-4-(4-Chloro-phenyl)-1-(5′-cyano-3,4,5,6-tetrahydro-2H-[1,2′]bipyridinyl-4-carbonyl)-pyrrolidin-3-yl]-methyl-carbamic acid p-tolyl ester], the Ki is 4.3 nM.
Still for that read-out and setting: the result for `CN(C(=O)Oc1ccc(F)cc1)[C@@H]1CN(C(=O)C2CCN(c3ccc(C(F)(F)F)cn3)CC2)C[C@H]1c1ccc(Cl)c(F)c1` [Example 313, [(3S,4R)-4-(4-Chloro-3-fluoro-phenyl)-1-(5′-trifluoromethyl-3,4,5,6-tetrahydro-2H-[1,2′]bipyridinyl-4-carbonyl)-pyrrolidin-3-yl]-methyl-carbamic acid 4-fluoro-phenyl ester] reads 0.9 nM; that for `CN(C(=O)Oc1ccc(F)cc1)[C@@H]1CN(C(=O)C2CCN(c3ncc(F)cn3)CC2)C[C@H]1c1ccc(Cl)cc1` [Example 169, {(3S,4R)-4-(4-Chloro-phenyl)-1-[1-(5-fluoro-pyrimidin-2-yl)-piperidine-4-carbonyl]-pyrrolidin-3-yl}-methyl-carbamic acid 4-fluoro-phenyl ester], 4.1 nM; that for `CN(C(=O)OCCC(F)(F)F)[C@H]1CN(C(=O)C2CCN(C(=O)C3(C)CC3)CC2)C[C@@H]1c1ccc(Cl)c(Cl)c1` (stereo in doubt) [Example 86, {(3R,4S)-4-(3,4-dichloro-phenyl)-1-[1-(1-methyl-cyclopropanecarbonyl)-piperidine-4-carbonyl]-pyrrolidin-3-yl}-methyl-carbamic acid 3,3,3-trifluoro-propyl ester], 60.4 nM.
For the compound `CN(C(=O)OCCC(F)(F)C(F)(F)F)[C@H]1CN(C(=O)C2CCN(C(=O)C3(C)CC3)CC2)C[C@@H]1c1ccc(Cl)c(Cl)c1` (racemic) [Example 83, rac-{(3R,4S)-4-(3,4-Dichloro-phenyl)-1-[1-(1-methyl-cyclopropanecarbonyl)-piperidine-4-carbonyl]-pyrrolidin-3-yl}-methyl-carbamic acid 3,3,4,4,4-pentafluoro-butyl ester], the Ki was found to be 4.2 nM.
On the same count and under the same terms, the figure for `CN(C(=O)Oc1ccc(F)cc1F)[C@@H]1CN(C(=O)C2CCN(c3ccc(C#N)cn3)CC2)C[C@H]1c1ccc(Cl)cc1` [Example 208, [(3S,4R)-4-(4-Chloro-phenyl)-1-(5′-cyano-3,4,5,6-tetrahydro-2H-[1,2′]bipyridinyl-4-carbonyl)-pyrrolidin-3-yl]-methyl-carbamic acid 2,4-difluoro-phenyl ester] is 0.4 nM.
The same measure, in the same setting: the figure for `CN(C(=O)Oc1ccc(F)cc1)[C@@H]1CN(C(=O)C2CCN(c3cccc(C#N)n3)CC2)C[C@H]1c1ccc(Cl)cc1` [Example 189, [(3S,4R)-4-(4-Chloro-phenyl)-1-(6′-cyano-3,4,5,6-tetrahydro-2H-[1,2′]bipyridinyl-4-carbonyl)-pyrrolidin-3-yl]-methyl-carbamic acid 4-fluoro-phenyl ester] is 3.5 nM.
Same read-out and setting: the result for `CN(C(=O)OCCCC(F)(F)F)[C@H]1CN(C(=O)C2CCN(c3ccc(C#N)cn3)CC2)C[C@@H]1c1ccc(Cl)cc1` [Example 128, [(3R,4S)-4-(4-Chloro-phenyl)-1-(5′-cyano-3,4,5,6-tetrahydro-2H-[1,2′]bipyridinyl-4-carbonyl)-pyrrolidin-3-yl]-methyl-carbamic acid 4,4,4-trifluoro-butyl ester] reads 68 nM.
`CN(C(=O)Oc1ccc(F)cc1)[C@@H]1CN(C(=O)C2CCN(C(=O)C3(C(F)(F)F)CC3)CC2)C[C@H]1c1ccc(Cl)cc1` [Example 255, {(3S,4R)-4-(4-Chloro-phenyl)-1-[1-(1-trifluoromethyl-cyclopropanecarbonyl)-piperidine-4-carbonyl]-pyrrolidin-3-yl}-methyl-carbamic acid 4-fluoro-phenyl ester]: the Ki turned out to be 2.5 nM.
Regarding `CN(C(=O)Oc1ccc(F)cc1)[C@@H]1CN(C(=O)C2CCN(c3ccc(C#N)cn3)CC2)C[C@H]1c1ccc(Cl)cc1` [Example 94, [(3S,4R)-4-(4-Chloro-phenyl)-1-(5′-cyano-3,4,5,6-tetrahydro-2H-[1,2′]bipyridinyl-4-carbonyl)-pyrrolidin-3-yl]-methyl-carbamic acid 4-fluoro-phenyl ester], the Ki is 0.2 nM.
On the same count and under the same terms, the result for `CN(C(=O)Oc1ccc(F)cc1)[C@@H]1CN(C(=O)C2CCCOC2)C[C@H]1c1ccc(Cl)cc1` (stereo partly drawn) [Example 147, [(3S,4R)-4-(4-Chloro-phenyl)-1-(tetrahydro-pyran-3-carbonyl)-pyrrolidin-3-yl]-methyl-carbamic acid 4-fluoro-phenyl ester] reads 73.7 nM; that for `CN(C(=O)OCc1ccc(F)cc1)[C@H]1CN(C(=O)C2CCN(C(=O)C3(C)CC3)CC2)C[C@@H]1c1ccc(Cl)c(Cl)c1` (racemic) [Example 95, rac-{(3R,4S)-4-(3,4-Dichloro-phenyl)-1-[1-(1-methyl-cyclopropanecarbonyl)-piperidine-4-carbonyl]-pyrrolidin-3-yl}-methyl-carbamic acid 4-fluoro-benzyl ester], 5.8 nM; that for `CN(C(=O)OC1CCC(F)(F)CC1)[C@H]1CN(C(=O)C2CCN(C(=O)C3(C)CC3)CC2)C[C@@H]1c1ccc(Cl)c(Cl)c1` (racemic) [Example 102, rac-{(3R,4S)-4-(3,4-Dichloro-phenyl)-1-[1-(1-methyl-cyclopropanecarbonyl)-piperidine-4-carbonyl]-pyrrolidin-3-yl}-methyl-carbamic acid 4,4-difluoro-cyclohexyl ester], 4 nM.
The same measure, in the same setting: the result for `COC1CC(C(=O)N2CCC(C(=O)N3C[C@@H](N(C)C(=O)Oc4ccc(F)cc4)[C@H](c4ccc(Cl)c(Cl)c4)C3)CC2)C1` (stereo partly drawn) [Example 269, {(3S,4R)-4-(3,4-Dichloro-phenyl)-1-[1-(3-methoxy-cyclobutanecarbonyl)-piperidine-4-carbonyl]-pyrrolidin-3-yl}-methyl-carbamic acid 4-fluoro-phenyl ester] reads 0.5 nM.
Still for that read-out and setting: the figure for `CN(C(=O)Oc1ccc(C#N)c(F)c1)[C@@H]1CN(C(=O)C2CCN(c3ccc(C#N)cn3)CC2)C[C@H]1c1ccc(Cl)cc1` [Example 245, [(3S,4R)-4-(4-Chloro-phenyl)-1-(5′-cyano-3,4,5,6-tetrahydro-2H-[1,2′]bipyridinyl-4-carbonyl)-pyrrolidin-3-yl]-methyl-carbamic acid 4-cyano-3-fluoro-phenyl ester] is 1.1 nM.
Regarding `Cc1ccccc1OC(=O)N(C)[C@@H]1CN(C(=O)C2CCN(c3ccc(C#N)cn3)CC2)C[C@H]1c1ccc(Cl)cc1` [Example 229, [(3S,4R)-4-(4-Chloro-phenyl)-1-(5′-cyano-3,4,5,6-tetrahydro-2H-[1,2′]bipyridinyl-4-carbonyl)-pyrrolidin-3-yl]-methyl-carbamic acid o-tolyl ester], the Ki worked out at 16.8 nM.

The same experiment, now with this note: hNK-3 receptor affinity; membranes from HEK293 cells transiently expressing recombinant human NK3 receptor; [3H]SR142801; Cheng-Prussoff; read-out: Data Ki.
Regarding `CC(OC(=O)N(C)[C@@H]1CN(C(=O)C2CCN(c3ccc(C#N)cn3)CC2)C[C@H]1c1ccc(Cl)cc1)C1CC1` (stereo partly drawn) [Example 153, [(3S,4R)-4-(4-Chloro-phenyl)-1-(5′-cyano-3,4,5,6-tetrahydro-2H-[1,2′]bipyridinyl-4-carbonyl)-pyrrolidin-3-yl]-methyl-carbamic acid 1-cyclopropyl-ethyl ester], the inhibition constant Ki was found to be 19.2 nM.
The same measure, in the same setting: the result for `CN(C(=O)OCC(F)(F)F)[C@@H]1CN(C(=O)C2CCN(C(=O)C3(C)CC3)CC2)C[C@H]1c1ccc(Cl)cc1` [Example 164, {(3S,4R)-4-(4-Chloro-phenyl)-1-[1-(1-methyl-cyclopropanecarbonyl)-piperidine-4-carbonyl]-pyrrolidin-3-yl}-methyl-carbamic acid 2,2,2-trifluoro ethyl ester] reads 81.4 nM; that for `CN(C(=O)O[C@H]1CC[C@H](C(F)(F)F)CC1)[C@H]1CN(C(=O)C2CCN(c3ccc(C#N)cn3)CC2)C[C@@H]1c1ccc(Cl)cc1` [Example 125, [(3R,4S)-4-(4-Chloro-phenyl)-1-(5′-cyano-3,4,5,6-tetrahydro-2H-[1,2′]bipyridinyl-4-carbonyl)-pyrrolidin-3-yl]-methyl-carbamic acid 4-trifluoromethyl-cyclohexyl ester], 50.9 nM.
